The numbers were not newly measured in patent US9561187B1, “Sustained release metoprolol formulations” (CMAX Technologies, Inc., priority 2014, dated 2017), which cites them from elsewhere.

The structures appear in SMILES notation. Where a name gives a salt, the structure may show the parent alone. Read-outs that look alike come from different tables or passages of the source.

The conditions of data set [1]: immediate-release tartrate vs extended-release succinate.

As to `COCCc1ccc(OCC(O)CNC(C)C)cc1` (racemic) [Metoprolol tartrate, (±)-1-(Isopropylamino)-3-[p-(2-methoxyethyl)phenoxy]-2-propanol L-(+)-tartrate (2:1) salt], the Solubility entry runs as follows: (in acetone) “slightly soluble”; (in ether) “insoluble”; (in methylene chloride, in chloroform, and in alcohol) “freely soluble”; (in water) “very soluble”. For the same molecule, the “More bioavailable than metoprolol succinate (more drug is absorbed)” value in data set [1] is given as “at least 30%”.

On to `COCCc1ccc(OCC(O)CNC(C)C)cc1` (racemic) [Metoprolol succinate, (±)1(isopropylamino)-3-[p-(2-methoxyethyl)phenoxy]-2-propanol succinate (2:1) (salt)], for which the Solubility entry is, setting by setting: (in dichloromethane and 2-propanol) “slightly soluble”; (in ethanol) “sparingly soluble”; (in ethyl-acetate, acetone, diethylether and heptane) “practically insoluble”; (in methanol) “soluble”; (in water) “freely soluble”.
